Results as given in publication PMC4949465, “Comparative chemical array screening for p38γ/δ MAPK inhibitors using a single gatekeeper residue difference between p38α/β and p38γ/δ” (Scientific Reports, 2016).
“And” between values parts separate entries of the source, which are not always exact repeats. Equal entries are not always repeated.

Assays:
MUC5AC = test system: MUC5AC; design: method as in PMID 23187130; conditions: airway epithelial cells; BIRB796 at high concentration; cited from earlier work
p38γ = target: T1, p38γ (Homo sapiens, UniProt P53778); assay: KinaseProfiler quantitative kinase assay (Eurofins), MBP substrate; format: biochemical; design: purchased Eurofins Pharma Discovery Services UK Limited (KinaseProfiler service); conditions: ATP at Km 15 µM, means of duplicate determinations
T1 sequence (P53778 1-367): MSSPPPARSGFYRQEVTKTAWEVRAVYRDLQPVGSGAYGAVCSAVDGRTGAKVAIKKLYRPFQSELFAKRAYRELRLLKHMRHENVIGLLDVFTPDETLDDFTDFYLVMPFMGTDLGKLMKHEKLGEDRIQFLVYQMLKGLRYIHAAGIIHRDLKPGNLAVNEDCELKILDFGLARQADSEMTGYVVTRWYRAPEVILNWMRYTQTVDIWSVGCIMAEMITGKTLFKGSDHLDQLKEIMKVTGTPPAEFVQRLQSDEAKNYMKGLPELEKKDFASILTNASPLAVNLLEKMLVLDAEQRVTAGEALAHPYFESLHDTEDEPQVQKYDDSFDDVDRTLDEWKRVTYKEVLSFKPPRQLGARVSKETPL
Experimental: (§1) SU-002 derivatives (SU-001, 003, 004, 005, and 006, shown in Fig. 3A) were synthesized and the inhibitory activities of SU-002 and its derivatives against p38αT106M were tested. […] We then conducted quantitative kinase assay analyses including IC50 using the KinaseProfiler service of Eurofins Pharma Discovery Services. MBP was used as a substrate for all tested p38 isoforms: p38α, p38αT106M, p38γ, and p38δ. All p38 isoforms used were activated using a constitutively active mutant of MKK6. […] Next, we examined their effects in HeLa cells. […] To verify the specificity of SU-005 for p38δ, a FLAG-tagged p38δM107T was constructed and tested in a similar manner.
(§2) Quantitative kinase assay analyses including IC50 were conducted using the KinaseProfiler service of Eurofins Pharma Discovery Services UK Limited.

GST-p38αT106M = target: T2, GST-p38αT106M (Homo sapiens, UniProt Q16539, T106M); assay: In vitro kinase assay, GST-ATF2 substrate, [γ-32P]ATP; format: biochemical
T2 construct: made in house
Experimental: (§3) Bacterially produced GST-p38α and GST-p38αT106M were used for the kinase assay. GST-ATF2 (1–109)[34] was used as a substrate. The assay conditions used have been previously described. […] DMSO (1 μL) was used instead of compound as a negative control. Then, the mixture was combined with the solution containing 1 μg substrate protein, 185 kBq [γ-^32P]ATP and 20 μΜ ATP to generate a 15 μL reaction mixture and incubated for 30 min at 30 °C. The reaction was terminated by adding 7.5 μL of 3 × SDS sample buffer and boiled for 5 min. Phosphorylated substrate protein was then separated by 12.5% SDS- polyacrylamide gel electrophoresis and visualized by autoradiography.

p38α = target: T3, p38α (Homo sapiens, UniProt Q16539); assay: KinaseProfiler quantitative kinase assay (Eurofins), MBP substrate; format: biochemical; conditions: ATP at Km 90 µM, means of duplicate determinations
T3 construct: purchased Eurofins Pharma Discovery Services UK Limited (KinaseProfiler service)
Experimental: as §1, §2

p38δ = target: T4, p38δ (Homo sapiens, UniProt O15264); assay: as above; format: biochemical; conditions: ATP at Km 15 µM, means of duplicate determinations
T4 construct: purchased Eurofins Pharma Discovery Services UK Limited (KinaseProfiler service)
T4 sequence (O15264 1-365): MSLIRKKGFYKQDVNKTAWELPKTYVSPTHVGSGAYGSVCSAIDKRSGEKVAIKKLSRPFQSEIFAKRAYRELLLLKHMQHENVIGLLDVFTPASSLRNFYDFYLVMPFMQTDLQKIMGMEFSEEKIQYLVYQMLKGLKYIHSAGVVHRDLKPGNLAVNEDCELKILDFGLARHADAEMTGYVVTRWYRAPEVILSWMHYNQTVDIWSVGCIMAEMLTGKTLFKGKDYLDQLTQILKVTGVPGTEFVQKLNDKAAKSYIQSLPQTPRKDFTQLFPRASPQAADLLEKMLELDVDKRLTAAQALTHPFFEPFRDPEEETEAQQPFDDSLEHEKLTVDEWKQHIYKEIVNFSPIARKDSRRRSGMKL
Experimental: as §1, §2

p38αT106M = target: T5, p38αT106M (Homo sapiens, UniProt Q16539, T106M); assay: as above; format: biochemical; conditions: ATP at Km 70 µM, means of duplicate determinations
T5 construct: purchased Eurofins Pharma Discovery Services UK Limited (KinaseProfiler service)
Experimental: as §1, §2

endogenous p38γ = target: T6, endogenous p38γ (Homo sapiens, UniProt P53778); assay: Endogenous p38γ auto-phosphorylation in HEK293T cells, western blot; format: cell-based; conditions: 10 μM, 0.2 M NaCl stimulation, Fig. 6
T6 construct: endogenous in cells; host or cells: HEK293T
T6 sequence (P53778 1-367): T1 sequence (P53778 1-367)
Experimental: For the analyses with HEK293T cells, 1 × 10^5 cells were seeded into each well of a 48-well plate. The next day, 10 μM SU derivative or SB202190 was added 1 h prior to stimulation of the cells with 0.2 M NaCl. The cells were further grown in DMEM supplemented with 10% FBS for 20 min. Then, the cells were rinsed once with PBS and harvested in 1 × SDS sample buffer.

GST-p38α = target: T7, GST-p38α (Homo sapiens, UniProt Q16539); assay: In vitro kinase assay, GST-ATF2 substrate, [γ-32P]ATP; format: biochemical; conditions: Fig. 2C, SU-002 0.06-7.6 μM
T7 construct: made in house
Experimental: as §3

GST-p38αT106M mutant = target: T8, GST-p38αT106M mutant (Homo sapiens, UniProt Q16539, T106M); assay: Comparative chemical array screening, binding to GST-p38αT106M; conditions: Table S2
T8 construct: made in house; host or cells: bacteria (stated for the kinase assay)
Experimental: Photo-cross-linked chemical arrays were prepared by the previously described method[33] utilizing a photoaffinity proline linker that had both PEG and a polyproline helix as spacers.
The slides were then washed with TBS-T buffer (10 mM Tris/HCl, 150 mM NaCl, 0.05% Tween-20, pH 8.0) three times for 5 min each and centrifuged (480 × g, 1 min) to dry. […] After washing with TBS-T buffer, the slides were incubated with an anti-GST antibody (30 μg/mL) in binding buffer at 30 °C for 1 h. This incubation was followed by another wash step and incubation with a secondary antibody (goat anti-rabbit IgG, Cy5 conjugate, 50 μg/mL in binding buffer) at 30 °C for 1 h. After the final wash step and spin dry, the slides were scanned at 635 nm on a GenePix 4300A microarray scanner (Molecular Devices). The fluorescence intensity (I) of each compound spot was quantified with GenePix 5.0 software with local background correction. Then, the difference (ΔΙ) of the fluorescence intensities between the GST-p38αT106M and GST-p38α-treated arrays was calculated by subtracting Ip38α from IT106M (ΔI = IT106M - Ip38α) for each spot. The mean and standard deviation (SD) of ΔI for all spots on the array were also calculated. The ΔΙ score of each spot was calculated using the following formula; ΔΙ score = (ΔI - mean)/SD. The compounds with a ΔΙ score larger than 2 were determined to be hit compounds for GST-p38αT106M. […]

T2 sequence (Q16539 whole entry T106M): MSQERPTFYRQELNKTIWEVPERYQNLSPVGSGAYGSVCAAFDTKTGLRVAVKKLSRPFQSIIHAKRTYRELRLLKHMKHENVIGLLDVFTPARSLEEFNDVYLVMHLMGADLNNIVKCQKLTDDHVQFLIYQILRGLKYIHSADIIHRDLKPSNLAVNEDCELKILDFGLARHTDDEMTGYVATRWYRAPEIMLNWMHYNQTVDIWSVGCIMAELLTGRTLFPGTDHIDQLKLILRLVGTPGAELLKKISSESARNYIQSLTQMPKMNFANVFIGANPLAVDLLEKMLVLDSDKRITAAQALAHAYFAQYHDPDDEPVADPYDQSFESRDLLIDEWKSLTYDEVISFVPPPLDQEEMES
T8 sequence (Q16539 whole entry T106M): as above
T5 sequence (Q16539 whole entry T106M): as above
T3 sequence (Q16539 whole entry): as the sequence (Q16539 whole entry T106M) above, with M106T counted along it
T7 sequence (Q16539 whole entry): as the sequence (Q16539 whole entry T106M) above, with M106T counted along it

SMILES	%kinase activity relative to control, p38γ (p38γ; 1 µM)	%kinase activity relative to control, p38γ (p38γ; 10 µM)	inhibition of p38αT106M kinase activity (GST-p38αT106M; 1 μM, Fig. 3B,C)	%kinase activity relative to control, p38α (p38α; 1 µM)	%kinase activity relative to control, p38α (p38α; 10 µM)	%kinase activity relative to control, p38δ (p38δ; 1 µM)	%kinase activity relative to control, p38δ (p38δ; 10 µM)	%kinase activity relative to control, p38αT106M (p38αT106M; 1 µM)	%kinase activity relative to control, p38αT106M (p38αT106M; 10 µM)	inhibition of endogenous p38γ phosphorylation (endogenous p38γ)	inhibition of p38α kinase activity (GST-p38α)	IT106M score (GST-p38αT106M mutant; I score = (I − Imean)/ISD, duplicate spots)	ΔI score (GST-p38αT106M mutant; ΔI = IT106M – Ip38α, ΔI score = (ΔI − ΔImean)/ΔISD, hit if larger than 2)	inhibition of production of MUC5AC mRNA and protein (MUC5AC)	inhibition of p38αT106M kinase activity (GST-p38αT106M; Fig. 2C,D, SU-002 0.012-7.6 μM)
Cc1ccc(-n2nc(C(C)(C)C)cc2NC(=O)Nc2ccc(OCCN3CCOCC3)c3ccccc23)cc1 [BIRB796]														markedly inhibited	
Nc1nnc(Sc2ccnc3cc(Cl)ccc23)s1 [SU-001]	103 ± 8%	95 ± 2%	did not inhibit	91 ± 13%	72 ± 2%	94 ± 2%	92 ± 1%	99 ± 0%	91 ± 6%						

More lines, main results first:

%kinase activity relative to control, p38γ (p38γ; 1 µM)	%kinase activity relative to control, p38γ (p38γ; 10 µM)	inhibition of p38αT106M kinase activity (GST-p38αT106M; 1 μM, Fig. 3B,C)	%kinase activity relative to control, p38α (p38α; 1 µM)	%kinase activity relative to control, p38α (p38α; 10 µM)	%kinase activity relative to control, p38δ (p38δ; 1 µM)	%kinase activity relative to control, p38δ (p38δ; 10 µM)	%kinase activity relative to control, p38αT106M (p38αT106M; 1 µM)	%kinase activity relative to control, p38αT106M (p38αT106M; 10 µM)	inhibition of endogenous p38γ phosphorylation (endogenous p38γ)	inhibition of p38α kinase activity (GST-p38α)	IT106M score (GST-p38αT106M mutant; I score = (I − Imean)/ISD, duplicate spots)	ΔI score (GST-p38αT106M mutant; ΔI = IT106M – Ip38α, ΔI score = (ΔI − ΔImean)/ΔISD, hit if larger than 2)	SMILES	inhibition of production of MUC5AC mRNA and protein (MUC5AC)	inhibition of p38αT106M kinase activity (GST-p38αT106M; Fig. 2C,D, SU-002 0.012-7.6 μM)
112 ± 3%	104 ± 6%		92 ± 8%	94 ± 6%	99 ± 2%	81 ± 1%	96 ± 4%	94 ± 1%	no or weak inhibitory activity				CC(=O)Nc1nnc(Sc2ccnc3cc(Cl)ccc23)s1 [SU-003]		
111 ± 4%	104 ± 8%		91 ± 2%	86 ± 3%	100 ± 4%	97 ± 3%	99 ± 0%	94 ± 3%	no or weak inhibitory activity				CCCCCC(=O)Nc1nnc(Sc2ccnc3cc(Cl)ccc23)s1 [SU-004]		
92 ± 5%	88 ± 2%	clearly impaired	88 ± 6%	94 ± 5%	90 ± 0%	96 ± 0%	83 ± 7%	72 ± 2%	similarly potent inhibitory activities	this inhibition was not seen	4.80 and 3.66	6.30 and 4.89	CCCCCCCC(=O)Nc1nnc(Sc2ccnc3cc(Cl)ccc23)s1 [SU-002]		inhibited the kinase activity of p38αT106M in a dose-dependent manner
